# Test results published in patent US12344597B2, “Alkoxy-substituted pyridinyl derivatives as LPA1 receptor antagonists and their use in the treatment of fibrosis” (IDORSIA PHARMACEUTICALS LTD, priority 2018, dated 2025).
# Target: human LPA1 receptor (Homo sapiens (Human), UniProt Q92633)
# Assay: Beta-arrestin recruitment assay to determine IC50 values for human LPAR1
# Type: cell-based
# Details: antagonist mode, Tango EDG2-bla U2OS cells, LPA 18:1 500 nM final
# Outline: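 Antagonist IC50 = concentration giving 50% inhibition of maximal LPA response. Read-out is beta-lactamase reporter activity after arrestin-protease recruitment in U2OS cells bearing LPA1-TEV-Gal4-VP16 construct; cells pre-incubated 20 h, 37 °C, 5% CO2.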
# human LPA1 receptor, sequence (Q92633 whole entry): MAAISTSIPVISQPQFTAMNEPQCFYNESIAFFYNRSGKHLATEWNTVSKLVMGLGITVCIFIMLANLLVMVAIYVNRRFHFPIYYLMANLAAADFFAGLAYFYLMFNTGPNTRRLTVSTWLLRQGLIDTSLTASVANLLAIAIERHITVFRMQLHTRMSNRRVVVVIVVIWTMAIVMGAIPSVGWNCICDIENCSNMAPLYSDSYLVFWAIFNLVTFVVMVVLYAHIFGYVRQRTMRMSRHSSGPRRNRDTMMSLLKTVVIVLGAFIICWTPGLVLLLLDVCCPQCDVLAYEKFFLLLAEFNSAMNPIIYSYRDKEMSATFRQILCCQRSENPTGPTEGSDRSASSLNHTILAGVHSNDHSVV
row,IC50 [nM],Compound
1,10,"Cc1ccc(NC(=O)C2(c3ccccc3C(C)C)CN(S(=O)(=O)C3(CC(=O)O)CC3)C2)c(OC(F)F)n1 [Ex 13-14, 2-(1-((3-((2-(difluoromethoxy)-6-methylpyridin-3-yl)carbamoyl)-3-(2-isopropylphenyl)azetidin-1-yl)sulfonyl)cyclopropyl)acetic acid]"
2,20,"Cc1ccc(NC(=O)C2(c3ccccc3C(C)C)CN(C(=O)CCOCC(=O)OCc3ccccc3)C2)c(OC(F)F)n1 [Ex 12-109, benzyl 2-(3-(3-((2-(difluoromethoxy)-6-methylpyridin-3-yl)carbamoyl)-3-(2-isopropylphenyl)azetidin-1-yl)-3-oxopropoxy)acetate]"
3,46,"Cc1ccc(NC(=O)C2(c3ccccc3C(C)C)CN(C(=O)NC3(C(=O)O)CC3)C2)c(OC(F)F)n1 [Ex 17-11, 1-(3-((2-(difluoromethoxy)-6-methylpyridin-3-yl)carbamoyl)-3-(2-isopropylphenyl)azetidine-1-carboxamido)cyclopropane-1-carboxylic acid]"
4,19,"CCOC(=O)CNCCN1CC(C(=O)Nc2ccc(C)nc2OC(F)F)(c2ccccc2C(C)C)C1 [Ex 11-79, Ethyl (2-(3-((2-(difluoromethoxy)-6-methylpyridin-3-yl)carbamoyl)-3-(2-isopropylphenyl)azetidin-1-yl)ethyl)glycinate]"
5,16,"CCOC(=O)CCN1CC(C(=O)Nc2ccc(C)nc2OC(F)F)(c2ccccc2C(C)C)C1 [Ex 11-13, ethyl 3-(3-((2-(difluoromethoxy)-6-methylpyridin-3-yl)carbamoyl)-3-(2-isopropylphenyl)azetidin-1-yl)propanoate]"
6,28,"Cc1ccc(NC(=O)C2(c3ccccc3C(C)C)CN(C(=O)C3C4CC3(C(=O)O)C4)C2)c(OC(F)F)n1 (stereo not shown) [Ex 12-108, 2-(3-((2-(difluoromethoxy)-6-methylpyridin-3-yl)carbamoyl)-3-(2-isopropylphenyl)azetidine-1-carbonyl)bicyclo[1.1.1]pentane-1-carboxylic acid]"
7,92,"CCNCCN1CC(C(=O)Nc2ccc(C)nc2OC(F)F)(c2ccccc2C(C)C)C1 [Ex 11-63, N-(2-(difluoromethoxy)-6-methylpyridin-3-yl)-1-(2-(ethylamino)ethyl)-3-(2-isopropylphenyl)azetidine-3-carboxamide]"
8,420,"CCCc1ccccc1C1(C(=O)Nc2ccc(C)nc2OC(F)F)CNC1 [Ex 29, N-(2-(difluoromethoxy)-6-methylpyridin-3-yl)-3-(2-propylphenyl)azetidine-3-carboxamide]"
9,240,"Cc1ccc(NC(=O)C2(c3ccccc3C(C)C)CN(C(=O)N3CCN(C)CC3)C2)c(OC(F)F)n1 [Ex 17-26, N-(2-(difluoromethoxy)-6-methylpyridin-3-yl)-3-(2-isopropylphenyl)-1-(4-methylpiperazine-1-carbonyl)azetidine-3-carboxamide]"
10,12,"Cc1ccc(NC(=O)C2(c3ccccc3C(C)C)CCN(C(=O)CC(=O)O)CC2)c(OC(F)F)n1 [Ex 12-66, 3-(4-((2-(difluoromethoxy)-6-methylpyridin-3-yl)carbamoyl)-4-(2-isopropylphenyl)piperidin-1-yl)-3-oxopropanoic acid]"
11,97,"CCOC(=O)/C=C/C(=O)N1CC(C(=O)Nc2ccc(C)nc2OC(F)F)(c2ccccc2C(C)C)C1 [Ex 12-74, ethyl (E)-4-(3-((2-(difluoromethoxy)-6-methylpyridin-3-yl)carbamoyl)-3-(2-isopropylphenyl)azetidin-1-yl)-4-oxobut-2-enoate]"
12,1720,"Cc1ccc(NC(=O)C2(c3ccccc3C(C)C)CN(C(=O)[C@H](C)NC(=O)OC(C)(C)C)C2)c(OC(F)F)n1 [Ex 12-32, tert-butyl (S)-(1-(3-((2-(difluoromethoxy)-6-methylpyridin-3-yl)carbamoyl)-3-(2-isopropylphenyl)azetidin-1-yl)-1-oxopropan-2-yl)carbamate]"
13,29,2-(2-(3-((2-(difluoromethoxy)-6-methylpyridin-3-yl)carbamoyl)-3-(2-isopropylphenyl)azetidin-1-yl)ethoxy)-2-methylpropanoic acid [Ex 40]
14,270,"COC(=O)c1[nH]ncc1S(=O)(=O)N1CC(C(=O)Nc2ccc(C)nc2OC(F)F)(c2ccccc2C(C)C)C1 [Ex 13-22, methyl 4-((3-((2-(difluoromethoxy)-6-methylpyridin-3-yl)carbamoyl)-3-(2-isopropylphenyl)azetidin-1-yl)sulfonyl)-1H-pyrazole-5-carboxylate]"
15,79,"CCOC(=O)c1cc(CN2CC(C(=O)Nc3ccc(C)nc3OC(F)F)(c3ccccc3C(C)C)C2)on1 [Ex 11-34, ethyl 5-((3-((2-(difluoromethoxy)-6-methylpyridin-3-yl)carbamoyl)-3-(2-isopropylphenyl)azetidin-1-yl)methyl)isoxazole-3-carboxylate]"
16,18,"Cc1ccc(NC(=O)C2(c3ccccc3C(C)C)CN(CCC3(C(=O)O)CCOC3)C2)c(OC(F)F)n1 (stereo not shown) [Ex 11-76, 3-(2-(3-((2-(difluoromethoxy)-6-methylpyridin-3-yl)carbamoyl)-3-(2-isopropylphenyl)azetidin-1-yl)ethyl)tetrahydrofuran-3-carboxylic acid]"

row,IC50 [nM],Compound
1,27,"Cc1ccc(NC(=O)C2(c3nccnc3C(C)C)CN(S(N)(=O)=O)C2)c(OC(F)F)n1 [Ex 69, N-(2-(difluoromethoxy)-6-methylpyridin-3-yl)-3-(3-isopropylpyrazin-2-yl)-1-sulfamoylazetidine-3-carboxamide]"
2,225,"CC(=O)N1CCC(CC(=O)N2CC(C(=O)Nc3ccc(C)nc3OC(F)F)(c3ccccc3C(C)C)C2)CC1 [Ex 12-137, 1-(2-(1-acetylpiperidin-4-yl)acetyl)-N-(2-(difluoromethoxy)-6-methylpyridin-3-yl)-3-(2-isopropylphenyl)azetidine-3-carboxamide]"
3,7,"Cc1ccc(NC(=O)C2(c3ccccc3C(C)C)CN(S(=O)(=O)NCC(=O)O)C2)c(OC(F)F)n1 [Ex 15-2, ((3-((2-(difluoromethoxy)-6-methylpyridin-3-yl)carbamoyl)-3-(2-isopropylphenyl)azetidin-1-yl)sulfonyl)glycine]"
4,60,"COc1nc(Cl)ccc1NC(=O)C1(c2ccccc2C(C)C)CN(C(=O)CCC(=O)O)C1 [Ex 12-70, 4-(3-((6-chloro-2-methoxypyridin-3-yl)carbamoyl)-3-(2-isopropylphenyl)azetidin-1-yl)-4-oxobutanoic acid]"
5,310,"Cc1cnc(NC(=O)C2(c3ccccc3C(C)C)CN(C3=NC(=O)CO3)C2)c(OC(F)F)c1 [Ex 84, N-(3-(difluoromethoxy)-5-methylpyridin-2-yl)-3-(2-isopropylphenyl)-1-(4-oxo-4,5-dihydrooxazol-2-yl)azetidine-3-carboxamide]"
6,69,"COC(=O)C1(CCCN2CC(C(=O)Nc3ccc(C)nc3OC(F)F)(c3ccccc3C(C)C)C2)CC1 [Ex 11-70, methyl 1-(3-(3-((2-(difluoromethoxy)-6-methylpyridin-3-yl)carbamoyl)-3-(2-isopropylphenyl)azetidin-1-yl)propyl)cyclopropane-1-carboxylate]"
7,9,"Cc1ccc(NC(=O)C2(c3ccccc3C(C)C)CN(C(=O)c3cc(O)no3)C2)c(OC(F)F)n1 [Ex 12-16, N-(2-(difluoromethoxy)-6-methylpyridin-3-yl)-1-(3-hydroxyisoxazole-5-carbonyl)-3-(2-isopropylphenyl)azetidine-3-carboxamide]"
8,16,"Cc1ccc(NC(=O)C2(c3ccccc3C(C)C)CN(C(=O)CS(=O)(=O)O)C2)c(OC(F)F)n1 [Ex 12-3, 2-(3-((2-(difluoromethoxy)-6-methylpyridin-3-yl)carbamoyl)-3-(2-isopropylphenyl)azetidin-1-yl)-2-oxoethane-1-sulfonic acid]"
9,15,"CC(C)c1ccccc1C1(C(=O)Nc2ncc(Cl)cc2OC(F)F)CNC1 [Ex 72, N-(5-chloro-3-(difluoromethoxy)pyridin-2-yl)-3-(2-isopropylphenyl)azetidine-3-carboxamide]"
10,33,"Cc1ccc(NC(=O)C2(c3ccccc3C(C)C)CN(C(=O)CCC(=O)O)C2)c(OC(C)C)n1 [Ex 12-68, 4-(3-((2-isopropoxy-6-methylpyridin-3-yl)carbamoyl)-3-(2-isopropylphenyl)azetidin-1-yl)-4-oxobutanoic acid]"
11,48,"Cc1cc(Cl)nc(N2CC(C(=O)Nc3ccc(C)nc3OC(F)F)(c3ccccc3C(C)C)C2)n1 [Ex 18-26, 1-(4-chloro-6-methylpyrimidin-2-yl)-N-(2-(difluoromethoxy)-6-methylpyridin-3-yl)-3-(2-isopropylphenyl)azetidine-3-carboxamide]"
12,127,"COC(=O)C1(COC(=O)N2CC(C(=O)Nc3ccc(C)nc3OC(F)F)(c3ccccc3C(C)C)C2)CC1 [Ex 14-11, (1-(methoxycarbonyl)cyclopropyl)methyl 3-((2-(difluoromethoxy)-6-methylpyridin-3-yl)carbamoyl)-3-(2-isopropylphenyl)azetidine-1-carboxylate]"
13,115,"Cc1ccc(NC(=O)C2(c3ccccc3C(C)C)CN(Cc3ccc(C(=O)O)nc3)C2)c(OC(F)F)n1 [Ex 11-53, 5-((3-((2-(difluoromethoxy)-6-methylpyridin-3-yl)carbamoyl)-3-(2-isopropylphenyl)azetidin-1-yl)methyl)picolinic acid]"
14,3,"Cc1ccc(NC(=O)C2(c3ccccc3C(C)C)CN(c3ncc(F)cn3)C2)c(OC(F)F)n1 [Ex 18-33, N-(2-(difluoromethoxy)-6-methylpyridin-3-yl)-1-(5-fluoropyrimidin-2-yl)-3-(2-isopropylphenyl)azetidine-3-carboxamide]"
15,8,"Cc1ccc(NC(=O)C2(c3ccccc3C(C)C)CN(CC(C)(C)CC(=O)O)C2)c(OC(F)F)n1 [Ex 11-33, 4-(3-((2-(difluoromethoxy)-6-methylpyridin-3-yl)carbamoyl)-3-(2-isopropylphenyl)azetidin-1-yl)-3,3-dimethylbutanoic acid]"
